Test results reported in patent US11426494B2, “Stents having biodegradable layers” (MT Acquisition Holdings LLC, priority 2007, dated 2022).

Key:
[1] = rapamycin degradation in DES coating (peak area ratio, control vs Micell processed); assay type: physicochemical; conditions: Micell processed materials vs control samples, FIG. 6
[2] = drug elution from DES coating; assay type: physicochemical; conditions: heparin+taxol in DES coating, FIG. 9, preliminary data

CO[C@H]1C[C@@H]2CC[C@@H](C)[C@@](O)(O2)C(=O)C(=O)N2CCCC[C@H]2C(=O)O[C@H]([C@H](C)C[C@@H]2CC[C@@H](O)[C@H](OC)C2)CC(=O)[C@H](C)/C=C(\C)[C@@H](O)[C@@H](OC)C(=O)[C@H](C)C[C@H](C)/C=C/C=C/C=C/1C [rapamycin]
rate of rapamycin degradation (peak area ratio) [1]: no difference in the rate of rapamycin degradation

CC(=O)O[C@H]1C(=O)[C@@]2(C)[C@H]([C@H](OC(=O)c3ccccc3)[C@]3(O)C[C@H](OC(=O)[C@H](O)[C@@H](NC(=O)c4ccccc4)c4ccccc4)C(C)=C1C3(C)C)[C@]1(OC(C)=O)CO[C@@H]1C[C@@H]2O [taxol]
primary drug (taxol) elution profile on addition of a 2nd drug (heparin) [2]: not affecting primary drug (taxol) elution profile

heparin
heparin elution continuing [2]: > 15 days
